Laboratory results as given in patent US12162836B2, “N-acyl-{4-[(4-aryl-phenyl)sulfonylmethyl]piperidine} compounds and their therapeutic use” (Modern Biosciences Limited, priority 2019, dated 2024).
Converted amounts (≈) assume the structure as drawn.

How the values were obtained:
[1] = tested on: Thp1 human monocytic cells; assay: Thp1 Monocyte ATP Production Assay (ATPlite); assay type: cell-based; details: for IC50: Thp1 cells, 24 hour incubation, 9-point concentration range from 10 μM to 10 nM, mean of 2 independent experiments; for potency in the Thp1 monocytic ATP assay (in words): as compared to the reference compounds
In short: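 Thp1 cells in glucose-free RPMI-1640 with 1% FBS were treated with compounds for 24 h at 37 °C/5% CO2, then ATP measured by ATPlite luminescence. Signal expressed as % of control viability; IC50 from 4-parameter fit, mean of two experiments.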

[2] = Aqueous solubility in FaSSIF; assay type: physicochemical; details: for solubility at 16 h: kinetic from dmso stock
hERG = hERG (Homo sapiens (Human), UniProt Q12809); assay: hERG Ion Channel binding assay (3H astemizole displacement); details: human, membranes of HEK293 cells stably expressing hERG, pH 7.4, probe 3H astemizole (1.5 nM); 30 μM; displacement of 3H astemizole, hERG-HEK293 membranes
In short: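 Membranes from stably transfected hERG-HEK293 cells incubated with 1.5 nM ³H-astemizole ± test compound in HEPES buffer pH 7.4 (0.1% BSA, 5 mM KCl, 130 mM NaCl) at 25° C for 60 min. Bound ligand measured by filtration and scintillation counting; reported as % displacement (0% none, 100% complete).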

[3] = pH 6.5, 16 hours, room temperature

Chain of hERG (Q12809 whole entry): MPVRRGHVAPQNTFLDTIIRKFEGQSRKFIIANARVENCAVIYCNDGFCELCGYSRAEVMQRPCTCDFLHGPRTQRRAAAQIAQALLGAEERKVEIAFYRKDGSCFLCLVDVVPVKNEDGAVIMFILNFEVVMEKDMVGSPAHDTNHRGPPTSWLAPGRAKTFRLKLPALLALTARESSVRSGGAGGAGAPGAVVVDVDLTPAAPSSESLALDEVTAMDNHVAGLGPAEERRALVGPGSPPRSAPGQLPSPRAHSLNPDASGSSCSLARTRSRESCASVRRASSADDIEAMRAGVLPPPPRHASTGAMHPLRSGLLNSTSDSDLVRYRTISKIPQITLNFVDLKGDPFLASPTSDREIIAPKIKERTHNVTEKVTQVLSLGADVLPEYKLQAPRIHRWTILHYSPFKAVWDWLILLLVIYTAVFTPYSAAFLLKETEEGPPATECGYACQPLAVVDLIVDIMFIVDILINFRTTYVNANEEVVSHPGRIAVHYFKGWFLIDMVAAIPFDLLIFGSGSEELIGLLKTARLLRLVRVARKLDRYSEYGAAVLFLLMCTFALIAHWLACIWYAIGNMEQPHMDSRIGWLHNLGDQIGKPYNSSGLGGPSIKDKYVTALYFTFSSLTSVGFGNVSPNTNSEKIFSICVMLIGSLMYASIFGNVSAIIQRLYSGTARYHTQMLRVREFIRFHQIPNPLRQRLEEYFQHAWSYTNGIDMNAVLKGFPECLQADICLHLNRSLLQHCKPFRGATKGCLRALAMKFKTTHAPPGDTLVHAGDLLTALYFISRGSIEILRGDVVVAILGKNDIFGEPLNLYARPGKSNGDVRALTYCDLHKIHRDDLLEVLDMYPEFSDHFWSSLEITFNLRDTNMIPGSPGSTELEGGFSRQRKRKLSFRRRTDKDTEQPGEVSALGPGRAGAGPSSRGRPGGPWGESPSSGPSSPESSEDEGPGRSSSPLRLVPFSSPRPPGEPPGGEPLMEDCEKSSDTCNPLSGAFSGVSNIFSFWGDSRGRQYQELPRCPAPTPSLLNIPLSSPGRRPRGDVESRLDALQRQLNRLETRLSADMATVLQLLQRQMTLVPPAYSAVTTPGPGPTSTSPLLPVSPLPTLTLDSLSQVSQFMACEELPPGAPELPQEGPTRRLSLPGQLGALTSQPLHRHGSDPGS

Row | Compound | IC50 [1] [nM] | Solubility [2, 3] | Solubility ([2]; pH 6.8) [mg/mL] | IC50 ([1]; Homo sapiens, THP-1) [nM] | potency in the Thp1 monocytic ATP assay (in words) [1] | solubility at 16 h [2, 3] [µg/mL] | inhibition at 60 min, 30 µM (hERG) [%] | solubility (in words) [2]
1 | CC1(O)CCC(NS(=O)(=O)c2ccc(-c3ccc(F)cc3F)cc2)CC1 (stereo not drawn) [ABD899, reference compound] | 200 | 0.06 ^(3) mg/mL | 0.13 (≈ 341 µM) | – | – | – | – | –
2 | CC(=O)N1CCC(CS(=O)(=O)c2ccc(-c3ccc(F)cc3F)cc2)CC1 [NASMP-01, 1-(4-(((2′,4′-Difluoro-[1,1′-biphenyl]-4-yl)sulfonyl)methyl)piperidin-1-yl)ethan-1-one] | – | – | – | 1000 | excellent potency | 75 (≈ 191 µM) | 14 | –
3 | CC(=O)N1CCC(CS(=O)(=O)c2ccc(-c3ccc(C#N)cc3Cl)cc2)CC1 [NASMP-05, 4′-(((1-Acetylpiperidin-4-yl)methyl)sulfonyl)-2-chloro-[1,1′-biphenyl]-4-carbonitrile] | – | – | – | 1100 | – | 62 (≈ 149 µM) | 23 | particularly good solubility
4 | CC(=O)N1CCC(CS(=O)(=O)c2ccc(-c3ccc(Cl)cc3C#N)cc2)CC1 [NASMP-06, 4′-(((1-Acetylpiperidin-4-yl)methyl)sulfonyl)-4-chloro-[1,1′-biphenyl]-2-carbonitrile] | – | – | – | 900 | – | 83 (≈ 199 µM) | 35 | particularly good solubility
5 | CC(=O)N1CCC(CS(=O)(=O)c2ccc(-c3ccc(C(F)(F)F)cc3F)cc2)CC1 [NASMP-07, 1-(4-(((2′-Fluoro-4′-(trifluoromethyl)-[1,1′-biphenyl]-4-yl)sulfonyl)methyl)piperidin-1-yl)ethan-1-one] | – | – | – | 800 | excellent potency | 89 (≈ 201 µM) | 79 | particularly good solubility
6 | CC(=O)N1CCC(CS(=O)(=O)c2ccc(-c3c(F)cccc3F)cc2)CC1 [NASMP-09, 1-(4-(((2′,6′-Difluoro-[1,1′-biphenyl]-4-yl)sulfonyl)methyl)piperidin-1-yl)ethan-1-one] | – | – | – | 1400 | – | 28 (≈ 71.2 µM) | 7 | –
7 | CC(=O)N1CCC(CS(=O)(=O)c2ccc(-c3ccc(F)cc3F)cc2C(F)(F)F)CC1 [NASMP-12, 1-(4-(((2′,4′-Difluoro-3-(trifluoromethyl)-[1,1′-biphenyl]-4-yl)sulfonyl)methyl)piperidin-1-yl)ethan-1-one] | – | – | – | 100 | excellent potency | 68 (≈ 147 µM) | 35 | particularly good solubility
8 | CCC(=O)N1CCC(CS(=O)(=O)c2ccc(-c3ccc(F)cc3F)cc2)CC1 [NASMP-15, 1-(4-(((2′,4′-Difluoro-[1,1′-biphenyl]-4-yl)sulfonyl)methyl)piperidin-1-yl)propan-1-one] | – | – | – | 600 | excellent potency | 73 (≈ 179 µM) | 45 | particularly good solubility
